# Source: PMC5617480 (Oncotarget, 2017)
# Test system: telomeres/telomerase-related genes
# Assay: RT-qPCR array (Telomeres & Telomerase PCR Array)
# Type: cell-based, human
# Settings: BEL-7404 cells, 10 μM, 24 h
# Method: To determine the mechanism(s), we further explored the effect of complex 6 on the expression of telomeres/telomerase-related genes (such as TRF1, hTERT, TRF2, c-myc, and 53BP1) in the BEL-7404 model. Firstly, RT-qPCR array was used to determine mRNA levels of telomeres/telomerase-related gene expressions in BEL-7404 cells when the cells were treated with complex 6. […] Secondly, these telomerase-related genes were determined by western blot. […]
# In addition, RNA
# 30.0 min at room temperature in the dark. Finally, the extraction, RT-PCR, and the selective binding to G4s by BEL-7404 cell cycle was determined with FACS Calibur complexes 4–6 was according to the our previous reported flow cytometer (BD) and analyzed using Cell Quest. […]
# ME). Gene expression by a panel of genes for RT-Determination of caspase-3/9 activity by flow qPCR array cytometric analysis Differential expression of telomeres/telomerase-related genes was analyzed using the Telomeres &
# Colorimetric analysis of caspase-9 and caspase-3 Telomerase PCR Array (RT2 Profiler™ PCR Array Human activation in BEL-7404 cells exposed to 10 μM of Telomeres & Telomerase, PAHS-010Z, SABioscience, complexes 4–6 for 24.0 h were carried out using the USA) obtained from Kangchen Bio-tech, Shanghai, China.
# CaspGLOW™ Fluorescein Active Caspase-9/Caspase-3 RNA was extracted according to standard protocols and Staining Kit. The BEL-7404 cells treated with complexes converted to first strand cDNA using the RT2 First Strand 4–6 and the controlled BEL-7404 cells were harvested Kit. The template was added to an instrument specific, from RPMI 1640 medium with 10% FBS, in a density of ready-to-use RT2 SYBR Green qPCR Master Mix. The 1.0 × 10^6 cells per milliliter. These cells were washed with resulting mixture was added to the wells (25.0 μL/well) of PBS and centrifuged for 3 times, and were then mixed the PCR Array plate containing the telomere maintenance, with 500 μL culture. 1.0 μL of FITC-LEHD-FMK or/telomere-associated complexes, telomere regulation and FITC-DEVD-FMK were consequently added and other genes associated with telomeres gene-specific primer incubated for 2.0 h at 37 °C with 5% CO2. The BEL- sets (25 μL for 96-well plates) and PCR was performed.
# 7404 cells were then determined with a FACS AriaII flow The threshold cycle (Ct) values for all the genes on each cytometer equipped with a 488 nm argon laser. Results PCR Array were calculated using the instrument specific were represented as the percent change on the activity software and the fold-changes in gene expression for pair-comparing with the control group. wise comparison were calculated using the 2-ΔCt method.
# Western blot assay TRAP Assay (TRAP-silver staining assay)
# The BEL-7404 Cells were treated with the same as Each telomerase extract was prepared from BEL-the above for 24.0 h with complexes 4–6 (10 μM), and 7404 cells. A modified version of the TRAP assay was total proteins were extracted by lysis buffer RIPA. Then used. The PCR was performed in a final […] use BCA protein assay to measure concentrations of each reaction volume composed of reaction mix ([…]) sample. After electrophoresis on 10% PAGE-SDS gel containing pH 8.0 Tris-HCl (20.0 mM), deoxynucleotide and blotting, anti-mutp53, 53BP1, TRF1, TRF2, hTERT, triphosphates ([…]), BSA (20 mg/mL), primer
substance,measurement,value
cis-[PtCl2(S-(–)-FOA)] [complex 6],"Fold Change, ABL1",0.80
same,"Fold Change, ACD",1.16
same,"Fold Change, ACTB",0.76
same,"Fold Change, AKT1",0.77
same,"Fold Change, ATM",1.08
same,"Fold Change, ATP5C1",1.19
same,"Fold Change, B2M",1.15
same,"Fold Change, BCL2",0.76
same,"Fold Change, BLM",1.21
same,"Fold Change, CDK2",0.80
same,"Fold Change, CHEK1",1.13
same,"Fold Change, CHEK2",1.23
same,"Fold Change, DCLRE1B",0.81
same,"Fold Change, DCLRE1C",1.20
same,"Fold Change, DKC1",1.14
same,"Fold Change, EGF",1.11
same,"Fold Change, EME1",1.26
same,"Fold Change, ERCC1",1.00
same,"Fold Change, ERCC4",1.22
same,"Fold Change, GAPDH",0.97
same,"Fold Change, GAR1",0.95
same,"Fold Change, HAT1",1.13
same,"Fold Change, HNRNPA2B1",1.06
same,"Fold Change, HNRNPD",0.95
same,"Fold Change, HPRT1",1.14
same,"Fold Change, HSP90AA1",1.35
same,"Fold Change, HSPA1L",1.65
same,"Fold Change, IGF1",0.02
same,"Fold Change, KRAS",0.88
same,"Fold Change, KRIT1",1.12
same,"Fold Change, MEN1",1.14
same,"Fold Change, MRE11A",1.41
same,"Fold Change, MSH2",0.90
same,"Fold Change, MSH3",0.66
same,"Fold Change, MUS81",1.55
same,"Fold Change, MYC",0.75
same,"Fold Change, NBN",0.79
same,"Fold Change, NCL",1.04
same,"Fold Change, NHP2",1.46
same,"Fold Change, NOP10",0.82
same,"Fold Change, OBFC1",1.32
same,"Fold Change, PARP1",1.02
same,"Fold Change, PAX8",9.91
same,"Fold Change, PIF1",0.84
same,"Fold Change, PINX1",1.13
same,"Fold Change, PLK1",0.72
same,"Fold Change, POT1",0.87
same,"Fold Change, PPARG",1.08
same,"Fold Change, PPP2R1A",0.88
same,"Fold Change, PPP2R1B",0.68
same,"Fold Change, PRKCA",1.12
same,"Fold Change, PRKCB",0.48
same,"Fold Change, PRKDC",0.83
same,"Fold Change, PTGES3",1.07
same,"Fold Change, PURA",1.07
same,"Fold Change, RAD17",1.11
same,"Fold Change, RAD50",1.44
same,"Fold Change, RAP1A",0.90
same,"Fold Change, RAPGEF1",0.97
same,"Fold Change, RASSF1",1.26
same,"Fold Change, RB1",0.59
same,"Fold Change, RFC1",1.33
same,"Fold Change, RIF1",1.67
same,"Fold Change, RPLP0",1.05
same,"Fold Change, RTEL1",0.39
same,"Fold Change, SART1",1.50
same,"Fold Change, SIRT2",0.84
same,"Fold Change, SIRT6",1.89
same,"Fold Change, SLX4",0.87
same,"Fold Change, SMAD3",0.65
same,"Fold Change, SMG6",1.05
same,"Fold Change, SP1",0.70
same,"Fold Change, SSB",1.14
same,"Fold Change, SUN1",1.04
same,"Fold Change, TEP1",1.73
same,"Fold Change, TERF1",1.39
same,"Fold Change, TERF2",0.99
same,"Fold Change, TERF2IP",1.47
same,"Fold Change, TERT",0.89
same,"Fold Change, TGFB1",1.46
same,"Fold Change, TINF2",1.14
same,"Fold Change, TNKS",1.12
same,"Fold Change, TNKS2",1.02
same,"Fold Change, TP53",1.45
same,"Fold Change, TP53BP1",1.18
same,"Fold Change, TPP1",1.07
same,"Fold Change, WRAP53",0.94
same,"Fold Change, XRCC5",0.76
same,"Fold Change, XRCC6",1.15
same,"Fold Up-or Down-Regulation, ABL1",-1.25
same,"Fold Up-or Down-Regulation, ACD",1.16
same,"Fold Up-or Down-Regulation, ACTB",-1.32
same,"Fold Up-or Down-Regulation, AKT1",-1.30
same,"Fold Up-or Down-Regulation, ATM",1.08
same,"Fold Up-or Down-Regulation, ATP5C1",1.19
same,"Fold Up-or Down-Regulation, B2M",1.15
same,"Fold Up-or Down-Regulation, BCL2",-1.32
same,"Fold Up-or Down-Regulation, BLM",1.21
same,"Fold Up-or Down-Regulation, CDK2",-1.24
same,"Fold Up-or Down-Regulation, CHEK1",1.13
same,"Fold Up-or Down-Regulation, CHEK2",1.23
same,"Fold Up-or Down-Regulation, DCLRE1B",-1.24
same,"Fold Up-or Down-Regulation, DCLRE1C",1.20
same,"Fold Up-or Down-Regulation, DKC1",1.14
same,"Fold Up-or Down-Regulation, EGF",1.11
same,"Fold Up-or Down-Regulation, EME1",1.26
same,"Fold Up-or Down-Regulation, ERCC1",-1.00
same,"Fold Up-or Down-Regulation, ERCC4",1.22
same,"Fold Up-or Down-Regulation, GAPDH",-1.04
same,"Fold Up-or Down-Regulation, GAR1",-1.05
same,"Fold Up-or Down-Regulation, HAT1",1.13
same,"Fold Up-or Down-Regulation, HNRNPA2B1",1.06
same,"Fold Up-or Down-Regulation, HNRNPD",-1.06
same,"Fold Up-or Down-Regulation, HPRT1",1.14
same,"Fold Up-or Down-Regulation, HSP90AA1",1.35
same,"Fold Up-or Down-Regulation, HSPA1L",1.65
same,"Fold Up-or Down-Regulation, IGF1",-57.88
same,"Fold Up-or Down-Regulation, KRAS",-1.13
same,"Fold Up-or Down-Regulation, KRIT1",1.12
same,"Fold Up-or Down-Regulation, MEN1",1.14
same,"Fold Up-or Down-Regulation, MRE11A",1.41
same,"Fold Up-or Down-Regulation, MSH2",-1.11
same,"Fold Up-or Down-Regulation, MSH3",-1.51
same,"Fold Up-or Down-Regulation, MUS81",1.55
same,"Fold Up-or Down-Regulation, MYC",-1.33
same,"Fold Up-or Down-Regulation, NBN",-1.27
same,"Fold Up-or Down-Regulation, NCL",1.04
same,"Fold Up-or Down-Regulation, NHP2",1.46
same,"Fold Up-or Down-Regulation, NOP10",-1.22
same,"Fold Up-or Down-Regulation, OBFC1",1.32
same,"Fold Up-or Down-Regulation, PARP1",1.02
same,"Fold Up-or Down-Regulation, PAX8",9.91
same,"Fold Up-or Down-Regulation, PIF1",-1.19
same,"Fold Up-or Down-Regulation, PINX1",1.13
same,"Fold Up-or Down-Regulation, PLK1",-1.39
same,"Fold Up-or Down-Regulation, POT1",-1.14
same,"Fold Up-or Down-Regulation, PPARG",1.08
same,"Fold Up-or Down-Regulation, PPP2R1A",-1.13
same,"Fold Up-or Down-Regulation, PPP2R1B",-1.46
same,"Fold Up-or Down-Regulation, PRKCA",1.12
same,"Fold Up-or Down-Regulation, PRKCB",-2.06
same,"Fold Up-or Down-Regulation, PRKDC",-1.20
same,"Fold Up-or Down-Regulation, PTGES3",1.07
same,"Fold Up-or Down-Regulation, PURA",1.07
same,"Fold Up-or Down-Regulation, RAD17",1.11
same,"Fold Up-or Down-Regulation, RAD50",1.44
same,"Fold Up-or Down-Regulation, RAP1A",-1.11
same,"Fold Up-or Down-Regulation, RAPGEF1",-1.03
same,"Fold Up-or Down-Regulation, RASSF1",1.26
same,"Fold Up-or Down-Regulation, RB1",-1.70
same,"Fold Up-or Down-Regulation, RFC1",1.33
same,"Fold Up-or Down-Regulation, RIF1",1.67
same,"Fold Up-or Down-Regulation, RPLP0",1.05
same,"Fold Up-or Down-Regulation, RTEL1",-2.58
same,"Fold Up-or Down-Regulation, SART1",1.50
same,"Fold Up-or Down-Regulation, SIRT2",-1.19
same,"Fold Up-or Down-Regulation, SIRT6",1.89
same,"Fold Up-or Down-Regulation, SLX4",-1.15
same,"Fold Up-or Down-Regulation, SMAD3",-1.55
same,"Fold Up-or Down-Regulation, SMG6",1.05
same,"Fold Up-or Down-Regulation, SP1",-1.43
same,"Fold Up-or Down-Regulation, SSB",1.14
same,"Fold Up-or Down-Regulation, SUN1",1.04
same,"Fold Up-or Down-Regulation, TEP1",1.73
same,"Fold Up-or Down-Regulation, TERF1",1.39
same,"Fold Up-or Down-Regulation, TERF2",-1.01
same,"Fold Up-or Down-Regulation, TERF2IP",1.47
same,"Fold Up-or Down-Regulation, TERT",-1.12
same,"Fold Up-or Down-Regulation, TGFB1",1.46
same,"Fold Up-or Down-Regulation, TINF2",1.14
same,"Fold Up-or Down-Regulation, TNKS",1.12
same,"Fold Up-or Down-Regulation, TNKS2",1.02
same,"Fold Up-or Down-Regulation, TP53",1.45
same,"Fold Up-or Down-Regulation, TP53BP1",1.18
same,"Fold Up-or Down-Regulation, TPP1",1.07
same,"Fold Up-or Down-Regulation, WRAP53",-1.06
same,"Fold Up-or Down-Regulation, XRCC5",-1.32
same,"Fold Up-or Down-Regulation, XRCC6",1.15
